Experimental findings from patent US20040006002A1, “Methods and compositions for treating flaviviruses and pestiviruses using 4'-modified nucleoside” (priority 2001, published 2004) are described below.

SMILES strings stand for the structures.

Data set [1] is described as follows: Cytotoxicity assay (sulforhodamine B, 4 days). The following applies: bovine; MDBK cells, 4 days incubation, concentration reducing cell number by 50%; preliminary results. It is filed as cell-based. As to the method: (§1) The test compounds were dissolved in DMSO at an initial concentration of 200 μM and then were serially diluted in culture medium.
(§2) Cells are seeded at a rate of between 5×10^3 and 5×10^4/well into 96-well plates in growth medium overnight at 37° C. in a humidified CO2 (5%) atmosphere. New growth medium containing serial dilutions of the drugs is then added. After incubation for 4 days, cultures are fixed in 50% TCA and stained with sulforhodamineB. The optical density was read at 550 nm. The cytotoxic concentration was expressed as the concentration required to reduce the cell number by 50% (CC50).

Data set [2] concerns BVDV (strain NADL). As to the kind of experiment: Cell Protection Assay (CPA), BVDV-infected MDBK cells. It is filed as cell-based, Bovine Viral Diarrhea virus. The following applies: MOI 0.02, MDBK cells, four days post-infection, 50% reduction of cytopathic effect. As to the method: as §1
(§3) The assay is performed essentially as described by Baginski, S. G.; Pevear, D. C.; Seipel, M.; Sun, S. C. C.; Benetatos, C. A.; Chunduru, S. K.; Rice, C. M. and M. S. Collett “Mechanism of action of a pestivirus antiviral compound” PNAS USA 2000, 97(14), 7981-7986. MDBK cells (ATCC) are seeded onto 96-well culture plates (4,000 cells per well) 24 hours before use. After infection with BVDV (strain NADL, ATCC) at a multiplicity of infection (MOI) of 0.02 plaque forming units (PFU) per cell, serial dilutions of test compounds are added to both infected and uninfected cells in a final concentration of 0.5% DMSO in growth medium. Each dilution is tested in quadruplicate. Cell densities and virus inocula are adjusted to ensure continuous cell growth throughout the experiment and to achieve more than 90% virus-induced cell destruction in the untreated controls after four days post-infection. After four days, plates are fixed with 50% TCA and stained with sulforhodamine B. The optical density of the wells is read in a microplate reader at 550 nm. The 50% effective concentration (EC50) values are defined as the compound concentration that achieved 50% reduction of cytopathic effect of the virus.
In general terms: Damage to the host cells serves as the signal in cytopathic effect assays.

Data set [3] is described as follows: Cell Protection Assay (CPA), uninfected cells (cytotoxicity). To be noted: bovine, uninfected MDBK cells, Table 2, Cell Protection Assay. Type of data set: cell-based. As to the method:
as §2, §3

Data set [4] concerns MDBK. Nature of the data set: Cytotoxicity assay (sulforhodamine B, 4 days). It is filed as cell-based. To be noted: MDBK cells, 4 days incubation, concentration reducing cell number by 50%; preliminary results. As to the method: as §1, §2
Data set [5] concerns MDBK cells. As to the kind of experiment: Cell Protection Assay (CPA), uninfected cells (cytotoxicity). Type of data set: cell-based. To be noted: Table 2, Cell Protection Assay. As to the method:
as §2, §3

[6] abbreviates: Bovine viral diarrhea virus isolates and strains, 96 h.

With `C[C@]1(CO)O[C@@H](n2cnc3c(=O)[nH]c(N)nc32)[C@H](O)[C@@H]1O` [β-D-4'-CH3-riboG, 9-(4-C-methyl-β-D-ribofuranosyl) guanine], the CC50 at 4 days in data set [1] and in data set [3] was more than 250 µM in each case. In data set [2] (setting [6]), the midpoint of the response, the EC50, lay at 43 µM.
Turning to `Cc1cn([C@@H]2O[C@](C)(CO)[C@@H](O)[C@H]2O)c(=O)[nH]c1=O` [β-D-4'-CH3-riboT, 1-(4-C-methyl-β-D-ribofuranosyl)thymine], the melting point (in general, the temperature, or range, at which the solid turns liquid) is 258 to 260 °C (dec.). Moreover, the CC50 (in general, the concentration giving 50% cytotoxicity) at 4 days in data set [1] was more than 250 µM. Further, the EC50 (commonly the concentration needed to bring the measured effect to its halfway point) in data set [2] (setting [6]) is more than 250 µM. For the same compound, the cytotoxic concentration (CC50) at 4 days in data set [3] is more than 250 µM.
In the case of `C[C@]1(CO)O[C@@H](n2ccc(=S)[nH]c2=O)[C@H](O)[C@@H]1O` [β-D-4'-CH3-ribo-4-thioU, 1-(4-C-methyl-β-D-ribofuranosyl)4-thio-uracil], the melting point is 65 to 70 °C (dec.). The CC50 at 4 days in data set [1] was more than 250 µM. Further, the EC50 in data set [2] (setting [6]) is more than 250 µM. For the same compound, the CC50 at 4 days in data set [3] was more than 250 µM.
As to `C[C@]1(CO)O[C@@H](n2cc(F)c(=O)[nH]c2=O)[C@H](O)[C@@H]1O` [β-D-4'-CH3-ribo-5-fluoroU], the CC50 in data set [4] and in data set [5] was more than 167 µM each time. In addition, the EC50 in data set [2] is more than 167 µM.
Turning to `C[C@]1(CO)O[C@@H](n2ccc(N)nc2=O)[C@H](O)[C@@H]1O` [β-D-4'-CH3-riboC, 1-(4-C-methyl-β-D-ribofuranosyl)cytosine], the CC50 at 4 days in data set [1] and in data set [3] was more than 250 µM throughout. Also, the concentration for a half-maximal effect (EC50) in data set [2] (setting [6]) was 9 µM.
`C[C@]1(CO)O[C@@H](n2cnc3c(N)ncnc32)[C@H](O)[C@@H]1O` [β-D-4'-CH3-riboA, 9-(4-C-methyl-β-D-ribofuranosyl) adenine]: the melting point was 96 to 97 °C (dec.). Also, the CC50 at 4 days in data set [1] is more than 250 µM. Also, the EC50 in data set [2] (setting [6]) is more than 250 µM. This compound came in with a CC50 at 4 days in data set [3] of more than 250 µM.
